# From patent US10562891B2, “Quinazolinones as PARP14 inhibitors” (Ribon Therapeutics Inc., priority 2017, dated 2020)
# Counter-ions that a name gives are not always drawn.
# Target: catalytic domain of human PARP14 (Homo sapiens (Human), UniProt Q460N5)
# Test: Enzymatic assay for inhibition of PARP14 (DELFIA, auto-modification with biotin-NAD)
# Format: biochemical
# Conditions: auto-modification of PARP14 by biotin-NAD, 50 nM PARP14, 3 μM biotin-NAD
# How it was run: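 DELFIA auto-modification read-out: europium-streptavidin bound to biotin-NAD incorporated onto nickel-captured His-TEV PARP14 catalytic domain. Compound preincubated 30 min, then 50 nM enzyme with 3 μM biotin-NAD reacted 3 h, all at 25 °C, pH 8, then NAD quench. Percent inhibition normalized to rucaparib/DMSO wells, fitted (4- or 3-parameter) for IC50.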
# Chain of catalytic domain of human PARP14 (Q460N5 1611-1801): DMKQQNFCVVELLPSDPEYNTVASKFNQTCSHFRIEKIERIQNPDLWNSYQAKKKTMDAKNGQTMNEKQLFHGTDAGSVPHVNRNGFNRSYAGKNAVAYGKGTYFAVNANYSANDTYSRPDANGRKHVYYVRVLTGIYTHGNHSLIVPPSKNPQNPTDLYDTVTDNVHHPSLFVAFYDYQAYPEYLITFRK
row,IC50 [nM],SMILES
1,< 1000,"O=c1[nH]c(CSC2CCNCC2)nc2cc(NC3CCC(F)(F)C3)cc(F)c12 (stereo not shown) [Example 266, 7-((3,3-Difluorocyclopentyl)amino)-5-fluoro-2-((piperidin-4-ylthio)methyl)quinazolin-4(3H)-one]"
2,1000 to 10000,"O=c1[nH]c(CSC2CCOCC2)nc2cc(NC3CCNC3)ccc12 (stereo not shown) [Example 130, 7-(Pyrrolidin-3-ylamino)-2-(((tetrahydro-2H-pyran-4-yl)thio)methyl) quinazolin-4(3H)-one]"
3,< 1000,"O=c1[nH]c(CSC2CCOCC2)nc2cc(OC[C@@H]3CCCO3)cc(F)c12 [Example 321b, (S)-5-Fluoro-2-(((tetrahydro-2H-pyran-4-yl)thio)methyl)-7-((tetrahydrofuran-2-yl)methoxy)quinazolin-4(3H)-one]"
4,< 1000,"CC(C)(O)C(=O)N1CCC(SCc2nc3cc(NC4CCCC4)cc(F)c3c(=O)[nH]2)CC1 [Example 279, 7-(Cyclopentylamino)-5-fluoro-2-(((1-(2-hydroxy-2-methylpropanoyl)piperidin-4-yl)thio)methyl)quinazolin-4(3H)-one]"
5,1000 to 10000,"O=c1[nH]c(CSC2CCOCC2)nc2cc(Nc3ccncc3)ccc12 [Example 86, 7-(Pyridin-4-ylamino)-2-(((tetrahydro-2H-pyran-4-yl)thio)methyl)quinazolin-4(3H)-one]"
6,1000 to 10000,"Cc1cccc2c(=O)[nH]c(CS[C@@H]3CC[C@@H](CCN)C3)nc12 (relative stereo) [Example 183, 2-((((trans)-3-(2-aminoethyl)cyclopentyl)thio)methyl)-8-methylquinazolin-4(3H)-one]"
7,1000 to 10000,"Cc1cccc2c(=O)[nH]c(CSCC3CCOCC3)nc12 [Example 12, 8-Methyl-2-((((tetrahydro-2H-pyran-4-yl)methyl)thio)methyl)quinazolin-4(3H)-one]"
8,< 1000,"CC(F)(F)CN1CCC(COc2cc(F)c3c(=O)[nH]c(CSC4CCOCC4)nc3c2)CC1 [Example 299, 7-((1-(2,2-Difluoropropyl)piperidin-4-yl)methoxy)-5-fluoro-2-(((tetrahydro-2H-pyran-4-yl)thio)methyl)quinazolin-4(3H)-one]"
9,< 1000,"O=c1[nH]c(CSC2CCOCC2)nc2cc(OCC3CCOC3)cc(F)c12 (stereo not shown) [Example 238, 5-Fluoro-2-(((tetrahydro-2H-pyran-4-yl)thio)methyl)-7-((tetrahydrofuran-3-yl)methoxy)quinazolin-4(3H)-one]"
10,> 10000,O=c1[nH]c(CSC2CCOCC2)nc2c(Cc3ccccc3)cccc12 [Example 10]
11,< 1000,CC(C)(C)COc1cc(F)c2c(=O)[nH]c(CSC3CCOCC3)nc2c1 [Example 416]
12,1000 to 10000,"O=c1[nH]c(CSC2CCNCC2)nc2cc(NCC3CCOCC3)cc(F)c12 [Example 272, 5-Fluoro-2-((piperidin-4-ylthio)methyl)-7-(((tetrahydro-2H-pyran-4-yl)methyl)amino)quinazolin-4(3H)-one]"
13,< 1000,"O=c1[nH]c(CSC2CCNCC2)nc2cc(OCC3CCCC3)cc(F)c12 [Example 282, 7-(Cyclopentylmethoxy)-5-fluoro-2-((piperidin-4-ylthio)methyl)quinazolin-4(3H)-one 2,2,2-trifluoroacetate]"
14,< 1000,CC(=O)N[C@H]1CC[C@H](SCc2nc3cc(NC4CCC4)c(F)c(F)c3c(=O)[nH]2)CC1 [Example 392]
15,< 1000,O=c1[nH]c(CSC2CCOCC2)nc2cc(OC[C@H]3CNC[C@H]3F)cc(F)c12 (relative stereo) [Example 371]
16,< 1000,"Cc1cccnc1CN1CCC(SCc2nc3c(C)cccc3c(=O)[nH]2)CC1 [Example 146, 8-Methyl-2-(((1-((3-methylpyridin-2-yl)methyl)piperidin-4-yl)thio)methyl)quinazolin-4(3H)-one bistrifluoroacetate]"
17,< 1000,CO[C@H]1C[C@H](Nc2cc3nc(CSC4CCOCC4)[nH]c(=O)c3c(F)c2F)C1 [Example 362]
18,< 1000,"O=c1[nH]c(CSC2CCOCC2)nc2cc(NC3CCN(CC(F)(F)F)CC3)cc(F)c12 [Example 288, 5-Fluoro-2-(((tetrahydro-2H-pyran-4-yl)thio)methyl)-7-((1-(2,2,2-trifluoroethyl)piperidin-4-yl)amino)quinazolin-4(3H)-one]"

row,IC50 [nM],SMILES
1,< 1000,"O=c1[nH]c(CSC2CCOCC2)nc2cc(NCC3CCOC3)c(F)c(F)c12 (stereo not shown) [Example 322, 5,6-Difluoro-2-(((tetrahydro-2H-pyran-4-yl)thio)methyl)-7-(((tetrahydrofuran-3-yl)methyl)amino)quinazolin-4(3H)-one]"
2,< 1000,"O=c1[nH]c(CSC2CCOCC2)nc2cc(NCCC3CCOCC3)ccc12 [Example 256, 7-((2-(Tetrahydro-2H-pyran-4-yl)ethyl)amino)-2-(((tetrahydro-2H-pyran-4-yl)thio)methyl)quinazolin-4(3H)-one]"
3,< 1000,"O=c1[nH]c(CSC2CCOCC2)nc2cc(NCC3CC3)c(F)cc12 [Example 292, 7-((Cyclopropylmethyl)amino)-6-fluoro-2-(((tetrahydro-2H-pyran-4-yl)thio)methyl)quinazolin-4(3H)-one]"
4,< 1000,"O=c1[nH]c(CSC2CCN(C3COC3)CC2)nc2cc(NCC3CC3)cc(F)c12 [Example 274, 7-((Cyclopropylmethyl)amino)-5-fluoro-2-(((1-(oxetan-3-yl)piperidin-4-yl)thio)methyl)quinazolin-4(3H)-one]"
5,1000 to 10000,"CO[C@H]1CC[C@H](SCc2nc3c(C)cccc3c(=O)[nH]2)CC1 [Example 26, 2-((((trans)-4-Methoxycyclohexyl)thio)methyl)-8-methylquinazolin-4(3H)-one]"
6,< 1000,C[C@]1(O)C[C@H](COc2cc(F)c3c(=O)[nH]c(CSC4CCOCC4)nc3c2)C1 [Example 385]
7,< 1000,"CS(=O)(=O)CCN1CCC(SCc2nc3cc(NC4CCCC4)cc(F)c3c(=O)[nH]2)CC1 [Example 276, 7-(Cyclopentylamino)-5-fluoro-2-(((1-(2-(methylsulfonyl)ethyl)piperidin-4-yl)thio)methyl)quinazolin-4(3H)-one]"
8,< 1000,"Cc1cccc2c(=O)[nH]c(CSC3CCN(C(=O)[C@@H](N)CCCNC(=N)N)CC3)nc12 [Example 170, (S)-1-(4-Amino-5-(4-(((8-methyl-4-oxo-3,4-dihydroquinazolin-2-yl)methyl)thio)piperidin-1-yl)-5-oxopentyl)guanidine Trihydrochloride]"
9,< 1000,"O=c1[nH]c(CSC2CCNCC2)nc2cc(OCC3CC3)cc(F)c12 [Example 278, 7-(Cyclopropylmethoxy)-5-fluoro-2-((piperidin-4-ylthio)methyl)quinazolin-4(3H)-one]"
10,1000 to 10000,"Cc1cccc2c(=O)[nH]c(CSC3CCN(C[C@@H](O)CO)CC3)nc12 [Example 160, (R)-2-(((1-(2,3-Dihydroxypropyl)piperidin-4-yl)thio)methyl)-8-methyl quinazolin-4(3H)-one Trifluoroacetate]"
11,1000 to 10000,Cc1cccc2nc(CSC3CCOCC3)[nH]c(=O)c12 [Example 9]
12,< 1000,"O=c1[nH]c(CSC2CCN(CC(F)F)CC2)nc2cc(NC3CCCC3)ccc12 [Example 258, 7-(Cyclopentylamino)-2-(((1-(2,2-difluoroethyl)piperidin-4-yl)thio)methyl)quinazolin-4(3H)-one]"
13,1000 to 10000,"Cc1cccc2c(=O)[nH]c(CS[C@H]3CC[C@@H](O)CC3)nc12 [Example 24, 2-((((cis)-4-Hydroxycyclohexyl)thio)methyl)-8-methylquinazolin-4(3H)-one]"
14,1000 to 10000,"COc1ccc(Nc2ccc3c(=O)[nH]c(CSC4CCOCC4)nc3c2)cc1 [Example 82, 7-((4-Methoxyphenyl)amino)-2-(((tetrahydro-2H-pyran-4-yl)thio)methyl)quinazolin-4(3H)-one]"
15,> 10000,"O=c1[nH]c(CSC2CCOCC2)nc2cc(NC3CCCC3)cc(CF)c12 [Example 225, 7-(cyclopentylamino)-5-(fluoromethyl)-2-(((tetrahydro-2H-pyran-4-yl)thio)methyl)quinazolin-4(3H)-one]"
16,< 1000,"Cc1cccc2c(=O)[nH]c(CS[C@H]3CC[C@H](O)CC3)nc12 [Example 23, 2-((((trans)-4-Hydroxycyclohexyl)thio)methyl)-8-methylquinazolin-4(3H)-one]"
17,< 1000,"Cc1ccc(C(F)(F)F)c2c(=O)[nH]c(CS[C@H]3CC[C@H](O)CC3)nc12 [Example 60, 2-(((trans-4-Hydroxycyclohexyl)thio)methyl)-8-methyl-5-(trifluoromethyl) quinazolin-4(3H)-one]"
18,1000 to 10000,"O=c1[nH]c(CSC2CCOCC2)nc2c(F)c(F)ccc12 [Example 45, 7,8-Difluoro-2-(((tetrahydro-2H-pyran-4-yl)thio)methyl)quinazolin-4(3H)-one]"

row,SMILES,IC50 [nM]
1,"O=c1[nH]c(CS[C@H]2CCNC[C@H]2F)nc2cc(NC3CCCC3)cc(F)c12 (relative stereo) [Example 212, 7-(Cyclopentylamino)-5-fluoro-2-((((cis)-3-fluoropiperidin-4-yl)thio)methyl)quinazolin-4(3H)-one Hydrochloride]",< 1000
2,"O=c1[nH]c(CS[C@H]2CCN[C@@H](C(F)(F)F)C2)nc2cc(NC3CCCC3)cc(F)c12 (relative stereo) [Example 228, 7-(Cyclopentylamino)-5-fluoro-2-(((cis-2-(trifluoromethyl)piperidin-4-yl)thio)methyl)quinazolin-4(3H)-one hydrochloride]",1000 to 10000
3,"Cc1cccc2c(=O)[nH]c(CSC3CCN(C[C@@H]4CCCN4)CC3)nc12 [Example 161, (S)-8-Methyl-2-(((1-(pyrrolidin-2-ylmethyl)piperidin-4-yl)thio)methyl) quinazolin-4(3H)-one Hydrochloride]",1000 to 10000
4,"Cc1cccc2c(=O)[nH]c(CSC3CCN(C(=O)CN)CC3)nc12 [Example 166, 2-(((1-Glycylpiperidin-4-yl)thio)methyl)-8-methylquinazolin-4(3H)-one Hydrochloride]",< 1000
